Test results taken from PMC5943477, “A Novel Enzyme Portfolio for Red Algal Polysaccharide Degradation in the Marine Bacterium Paraglaciecola hydrolytica S66^T Encoded in a Sizeable Polysaccharide Utilization Locus” (Frontiers in Microbiology, 2018).

Tests used:
Type in all cases: biochemical
[1] = molecular target: T1, Ph1615 (GH117) (Paraglaciecola hydrolytica, UniProt A0A136A0T3); assay: TLC of hydrolysis products, crude recombinant lysate; settings: 25 °C overnight, pH 8
T1 construct: gene AX660_11560; full gene without any predicted signal peptide, pET9a-USER vector (octa-His tag), E. coli BL21(DE3) crude lysate
T1 sequence (A0A136A0T3 1-359): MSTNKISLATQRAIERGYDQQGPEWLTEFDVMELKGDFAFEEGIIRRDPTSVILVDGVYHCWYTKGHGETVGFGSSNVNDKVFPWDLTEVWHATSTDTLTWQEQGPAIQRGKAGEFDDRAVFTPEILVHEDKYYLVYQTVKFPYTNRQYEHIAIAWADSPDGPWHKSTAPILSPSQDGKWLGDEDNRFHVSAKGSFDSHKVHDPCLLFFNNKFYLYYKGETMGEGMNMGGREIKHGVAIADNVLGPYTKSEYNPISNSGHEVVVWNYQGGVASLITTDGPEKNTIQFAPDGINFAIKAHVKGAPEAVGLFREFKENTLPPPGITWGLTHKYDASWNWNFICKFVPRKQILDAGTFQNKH

[2] = molecular target: T2, Ph1631 (GH16) (Paraglaciecola hydrolytica, UniProt A0A136A0U8); assay: TLC of hydrolysis products from agarose, crude recombinant lysate; settings: 25 °C overnight, pH 8; agarose 0.05% w/v
T2 construct: gene AX660_11645; full gene without any predicted signal peptide, pET22b NdeI/XhoI, E. coli BL21(DE3) crude lysate
T2 sequence (A0A136A0U8 20-293): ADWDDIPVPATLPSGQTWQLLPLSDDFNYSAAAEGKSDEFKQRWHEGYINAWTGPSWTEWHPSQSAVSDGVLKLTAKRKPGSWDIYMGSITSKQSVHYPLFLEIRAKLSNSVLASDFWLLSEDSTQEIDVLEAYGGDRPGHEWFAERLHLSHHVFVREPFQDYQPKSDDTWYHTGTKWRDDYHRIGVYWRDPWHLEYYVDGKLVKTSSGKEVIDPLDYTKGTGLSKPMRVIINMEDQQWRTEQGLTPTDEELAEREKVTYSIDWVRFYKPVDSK

[3] = molecular target: T3, Ph1657 (GH42-like) (Paraglaciecola hydrolytica, UniProt A0A136A0V1); assay: FACE (AMAC label) of hydrolysis products, crude recombinant lysate; settings: 25 °C overnight, pH 8, oligosaccharide 2 μg/μL
T3 construct: gene AX660_11775; full gene without any predicted signal peptide, pET9a-USER vector (octa-His tag), E. coli BL21(DE3) crude lysate
T3 sequence (A0A136A0V1 21-810): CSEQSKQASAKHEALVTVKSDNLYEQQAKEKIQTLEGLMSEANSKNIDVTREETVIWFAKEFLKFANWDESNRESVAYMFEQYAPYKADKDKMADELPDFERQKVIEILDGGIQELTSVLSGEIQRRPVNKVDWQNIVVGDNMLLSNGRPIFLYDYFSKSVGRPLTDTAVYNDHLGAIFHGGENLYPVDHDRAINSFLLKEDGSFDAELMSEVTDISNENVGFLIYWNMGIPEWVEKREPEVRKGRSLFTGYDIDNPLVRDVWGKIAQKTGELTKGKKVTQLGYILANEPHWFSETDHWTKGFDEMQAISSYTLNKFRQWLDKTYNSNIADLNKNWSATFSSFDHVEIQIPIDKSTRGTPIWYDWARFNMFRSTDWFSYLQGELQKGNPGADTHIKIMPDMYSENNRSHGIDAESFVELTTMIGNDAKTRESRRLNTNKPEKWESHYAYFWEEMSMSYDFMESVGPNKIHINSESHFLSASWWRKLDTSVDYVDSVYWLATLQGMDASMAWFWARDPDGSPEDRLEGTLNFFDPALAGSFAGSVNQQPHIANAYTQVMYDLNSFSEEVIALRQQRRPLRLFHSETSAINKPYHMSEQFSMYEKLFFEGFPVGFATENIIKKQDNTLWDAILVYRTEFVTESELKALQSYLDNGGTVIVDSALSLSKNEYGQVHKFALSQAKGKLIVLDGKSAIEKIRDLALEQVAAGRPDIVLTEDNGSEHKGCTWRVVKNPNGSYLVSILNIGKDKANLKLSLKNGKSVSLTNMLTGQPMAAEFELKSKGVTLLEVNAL

[4] = molecular target: T4, Ph1675 (GH16) (Paraglaciecola hydrolytica, UniProt A0A136A0W8); assay: FACE (ANTS label) of hydrolysis products, crude recombinant lysate; settings: 25 °C overnight, pH 8, lysis buffer with 5 mM CaCl2
T4 construct: gene AX660_11860; full gene without any predicted signal peptide, pET9a-USER vector (octa-His tag), E. coli BL21(DE3) crude lysate
T4 sequence (A0A136A0W8 35-349): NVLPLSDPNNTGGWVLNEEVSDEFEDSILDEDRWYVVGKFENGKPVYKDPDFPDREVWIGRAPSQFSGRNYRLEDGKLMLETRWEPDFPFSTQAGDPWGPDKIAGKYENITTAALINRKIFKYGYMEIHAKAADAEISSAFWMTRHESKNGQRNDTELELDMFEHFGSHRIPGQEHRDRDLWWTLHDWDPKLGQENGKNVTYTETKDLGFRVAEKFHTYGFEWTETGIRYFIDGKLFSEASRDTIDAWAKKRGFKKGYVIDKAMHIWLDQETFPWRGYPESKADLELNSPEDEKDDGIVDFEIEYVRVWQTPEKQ

[5] = molecular target: T5, Ph1664 (GH16) (Paraglaciecola hydrolytica, UniProt A0A136A0V5); assay: FACE (ANTS label) of hydrolysis products from κ-carrageenan and furcellaran, crude recombinant lysate; settings: 25 °C overnight, pH 8, 300 mM NaCl, 5 mM MgCl2; polysaccharide 0.05% w/v
T5 construct: gene AX660_11805; full gene without any predicted signal peptide, pET9a-USER vector (octa-His tag), E. coli BL21(DE3) crude lysate
T5 sequence (A0A136A0V5 20-322): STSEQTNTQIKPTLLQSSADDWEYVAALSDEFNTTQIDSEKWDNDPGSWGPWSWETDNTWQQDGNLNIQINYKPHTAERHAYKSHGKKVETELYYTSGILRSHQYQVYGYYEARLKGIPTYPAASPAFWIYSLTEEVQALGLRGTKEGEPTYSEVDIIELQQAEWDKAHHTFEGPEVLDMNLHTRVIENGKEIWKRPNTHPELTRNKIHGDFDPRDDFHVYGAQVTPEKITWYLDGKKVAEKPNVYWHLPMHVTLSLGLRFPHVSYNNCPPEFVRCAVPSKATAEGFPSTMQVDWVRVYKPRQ

SMILES: OC[C@H]1OC(O)[C@H](O)[C@@H](O[C@@H]2O[C@H]3CO[C@@H]([C@@H]2O)[C@@H]3O)[C@H]1O (stereo partly drawn) [neoagarobiose]
- TLC of hydrolysis products, crude recombinant lysate [1]: Ph1615 (GH117) was able to hydrolyze neoagarobiose yielding L-AHG and galactose

SMILES: OC[C@H]1O[C@@H](O[C@H]2[C@H]3OC[C@@H]2O[C@@H](O[C@H]2[C@@H](O)[C@@H](CO)OC(O)[C@@H]2O)[C@H]3O)[C@H](O)[C@@H](O[C@@H]2O[C@H]3CO[C@@H]([C@@H]2O)[C@@H]3O)[C@H]1O (stereo partly drawn) [neoagarotetraose]
- TLC of hydrolysis products from agarose, crude recombinant lysate [2]: Ph1631 degraded agarose into primarily neoagarotetraose

SMILES: O=S(=O)(O)O[C@@H]1[C@H](O[C@H]2O[C@@H]3CO[C@H]([C@H]2O)[C@H]3O[C@@H]2O[C@H](CO)[C@H](O)[C@H](O[C@H]3O[C@@H]4CO[C@@H]([C@H]4O)[C@H]3O)[C@H]2O)[C@@H](O)C(O)O[C@@H]1CO (stereo partly drawn) [β-κ, β-κ tetrasaccharide]
- FACE (AMAC label) of hydrolysis products, crude recombinant lysate [3]: when tested on a commercial β-κ tetrasaccharide, this substrate was indeed hydrolyzed into (β) and (κ)
- FACE (ANTS label) of hydrolysis products, crude recombinant lysate [4]: it was found to degrade the substrate into the corresponding β- and κ-carrabiose units

SMILES: O=S(=O)(O)O[C@@H]1[C@H](O[C@H]2O[C@@H]3CO[C@@H]([C@H]3O)[C@H]2O)[C@@H](O)C(O)O[C@@H]1CO (stereo partly drawn) [κ, neo-κ-carrabiose]
- FACE (ANTS label) of hydrolysis products from κ-carrageenan and furcellaran, cru [5]: releasing hydrolysis products corresponding to neo-κ-carrabiose (κ), neo-κ-carratetraose (κ-κ)

SMILES: O=S(=O)(O)O[C@@H]1[C@H](O[C@H]2O[C@@H]3CO[C@@H]([C@H]3O)[C@H]2O)[C@@H](O)[C@H](O[C@@H]2[C@@H]3OC[C@H]2O[C@H](O[C@H]2[C@@H](OS(=O)(=O)O)[C@@H](CO)OC(O)[C@@H]2O)[C@@H]3O)O[C@@H]1CO (stereo partly drawn) [κ-κ, neo-κ-carratetraose]
- FACE (ANTS label) of hydrolysis products from κ-carrageenan and furcellaran, cru [5]: releasing hydrolysis products corresponding to neo-κ-carrabiose (κ), neo-κ-carratetraose (κ-κ)
